{"source": "patent US5770618A", "about": "(Nastech Pharmaceutical Company, Inc., priority 1996, dated 1998)", "key": {"physchem [1]": {"assay": "physchem"}, "physchem [2]": {"assay": "physchem", "remark": "listed apart in the source", "from_the_text": "The final pH values of the solutions ranged from about 4 to about 6."}, "[3]": {"conditions": "cited from earlier work"}}, "note": "Counter-ions that a name gives are not always drawn.", "data": [{"smiles": "CN1CCC[C@@H]1CCO[C@](C)(c1ccccc1)c1ccc(Cl)cc1", "note": "[Clemastine Fumarate, clemastine fumarate]", "values": [{"measurement": "solubility at 24 h", "setting": "physchem [1]; ammonium acetate 0.1 m, pH 5.4, Clemastine Fumarate Solubility", "result": 6.1, "unit": "mg/mL"}, {"measurement": "solubility at 24 h", "setting": "physchem [1]; ammonium acetate 0.25 m, pH 5.5, Clemastine Fumarate Solubility", "result": 12.2, "unit": "mg/mL"}, {"measurement": "solubility at 24 h", "setting": "physchem [1]; ammonium acetate 0.5 m, pH 5.6, Clemastine Fumarate Solubility", "result": 25.7, "unit": "mg/mL"}, {"measurement": "solubility at 24 h", "setting": "physchem [1]; ammonium acetate 1.0 m, pH 5.7, Clemastine Fumarate Solubility", "result": 43.3, "unit": "mg/mL"}, {"measurement": "solubility at 24 h", "setting": "physchem [1]; sodium acetate 0.1 m, pH 5.4, Clemastine Fumarate Solubility", "result": 6.6, "unit": "mg/mL"}, {"measurement": "solubility at 24 h", "setting": "physchem [1]; sodium acetate 0.25 m, pH 5.5, Clemastine Fumarate Solubility", "result": 14.3, "unit": "mg/mL"}, {"measurement": "solubility at 24 h", "setting": "physchem [1]; sodium acetate 0.5 m, pH 5.6, Clemastine Fumarate Solubility", "result": 24, "unit": "mg/mL"}, {"measurement": "solubility at 24 h", "setting": "physchem [1]; sodium acetate 1.0 m, pH 5.7, Clemastine Fumarate Solubility", "result": 41.2, "unit": "mg/mL"}, {"measurement": "solubility at 24 h", "setting": "physchem [1]; sodium ascorbate 0.1 m, pH 5.2, Clemastine Fumarate Solubility", "result": 5.5, "unit": "mg/mL"}, {"measurement": "solubility at 24 h", "setting": "physchem [1]; sodium ascorbate 0.25 m, pH 5.2, Clemastine Fumarate Solubility", "result": 7.5, "unit": "mg/mL"}, {"measurement": "solubility at 24 h", "setting": "physchem [1]; sodium ascorbate 0.5 m, pH 5.2, Clemastine Fumarate Solubility", "result": 16.7, "unit": "mg/mL"}, {"measurement": "solubility at 24 h", "setting": "physchem [1]; sodium ascorbate 1.0 m, pH 5.3, Clemastine Fumarate Solubility", "result": 30.6, "unit": "mg/mL"}, {"measurement": "solubility at 24 h", "setting": "physchem [1]; sodium citrate 0.15 m, pH 5.6, Clemastine Fumarate Solubility", "result": 28.6, "unit": "mg/mL"}, {"measurement": "solubility at 24 h", "setting": "physchem [1]; sodium citrate 0.25 m, pH 5.7, Clemastine Fumarate Solubility", "result": 40, "unit": "mg/mL"}, {"measurement": "solubility at 24 h", "setting": "physchem [1]; sodium fumarate 0.25 m, pH 6.2, Clemastine Fumarate Solubility", "result": 44.2, "unit": "mg/mL"}, {"measurement": "solubility at 24 h", "setting": "physchem [1]; sodium fumarate 0.5 m, pH 6.4, Clemastine Fumarate Solubility", "result": 82.1, "unit": "mg/mL"}, {"measurement": "solubility at 24 h", "setting": "physchem [1]; sodium glycinate 0.25 m, pH 9.1, Clemastine Fumarate Solubility", "result": 15.5, "unit": "mg/mL"}, {"measurement": "solubility at 24 h", "setting": "physchem [1]; sodium glycinate 0.5 m, pH 9.4, Clemastine Fumarate Solubility", "result": 26.6, "unit": "mg/mL"}, {"measurement": "solubility at 24 h", "setting": "physchem [1]; sodium malate 0.1 m, Clemastine Fumarate Solubility", "result": 13.8, "unit": "mg/mL"}, {"measurement": "solubility at 24 h", "setting": "physchem [1]; sodium malate 0.25 m, pH 6, Clemastine Fumarate Solubility", "result": 16.9, "unit": "mg/mL"}, {"measurement": "solubility at 24 h", "setting": "physchem [1]; sodium malate 0.5 m, pH 5.5, Clemastine Fumarate Solubility", "result": 25.5, "unit": "mg/mL"}, {"measurement": "solubility at 24 h", "setting": "physchem [1]; sodium malate 1.0 m, pH 5.7, Clemastine Fumarate Solubility", "result": 29.3, "unit": "mg/mL"}, {"measurement": "solubility at 24 h", "setting": "physchem [1]; sodium maleate 0.25 m, pH 6, Clemastine Fumarate Solubility", "result": 41.4, "unit": "mg/mL"}, {"measurement": "solubility at 24 h", "setting": "physchem [1]; sodium maleate 0.5 m, pH 6.5, Clemastine Fumarate Solubility", "result": 65, "unit": "mg/mL"}, {"measurement": "solubility at 24 h", "setting": "physchem [1]; sodium maleate 1.0 m, pH 6.8, Clemastine Fumarate Solubility", "result": 153, "unit": "mg/mL"}, {"measurement": "solubility at 24 h", "setting": "physchem [1]; sodium succinate 0.25 m, pH 6.1, Clemastine Fumarate Solubility", "result": 15.4, "unit": "mg/mL"}, {"measurement": "solubility at 24 h", "setting": "physchem [1]; sodium succinate 0.5 m, pH 6.3, Clemastine Fumarate Solubility", "result": 18.2, "unit": "mg/mL"}, {"measurement": "solubility at 24 h", "setting": "physchem [1]; sodium tartarate 0.5 m, pH 5.1, Clemastine Fumarate Solubility", "result": 13.3, "unit": "mg/mL"}, {"measurement": "solubility", "setting": "physchem [2]; acetate buffer 0.5 m, pH 4.1", "result": 0.6, "unit": "mg/mL"}, {"measurement": "solubility", "setting": "physchem [2]; acetate buffer 0.5 m, pH 5", "result": 3.8, "unit": "mg/mL"}, {"measurement": "solubility", "setting": "physchem [2]; acetate buffer 0.5 m, pH 5.3", "result": 11.2, "unit": "mg/mL"}, {"measurement": "solubility", "setting": "physchem [2]; acetate buffer 0.5 m, pH 5.5", "result": 18.2, "unit": "mg/mL"}, {"measurement": "solubility", "setting": "physchem [2]; acetate buffer 0.5 m, pH 5.7", "result": 24, "unit": "mg/mL"}, {"measurement": "solubility", "setting": "physchem [2]; citrate buffer 0.5 m, pH 4.1", "result": 2.7, "unit": "mg/mL"}, {"measurement": "solubility", "setting": "physchem [2]; citrate buffer 0.5 m, pH 4.9", "result": 3.3, "unit": "mg/mL"}, {"measurement": "solubility", "setting": "physchem [2]; citrate buffer 0.5 m, pH 5.3", "result": 31.6, "unit": "mg/mL"}, {"measurement": "solubility", "setting": "physchem [2]; citrate buffer 0.5 m, pH 5.6", "result": 46.3, "unit": "mg/mL"}, {"measurement": "solubility", "setting": "physchem [2]; citrate buffer 0.5 m, pH 5.8", "result": 47, "unit": "mg/mL"}, {"measurement": "solubility in alcohol", "setting": "[3]; Remington, 19th edition, 1995", "result": "only slightly soluble"}, {"measurement": "solubility in water, chloroform or ether", "setting": "[3]; Remington, 19th edition, 1995", "result": "very slightly soluble"}]}, {"smiles": "CN1CCC[C@@H]1CCO[C@](C)(c1ccccc1)c1ccc(Cl)cc1", "note": "[clemastine]", "values": [{"measurement": "solubility in pharmaceutically acceptable solvents", "setting": "[3]; as is well known in the art, clemastine and its salts", "result": "sparingly soluble"}]}]}
